Patent US20260315452A1, “PROTEASE INHIBITORS AND USES THEREOF” (priority 2023, published 2026)

Target: SARS-CoV-2 3CLpro (Severe acute respiratory syndrome coronavirus 2, UniProt P0DTD1)
Experiment: biochemical
Settings: inhibition of SARS-CoV-2 3CLpro; 15 nM 3CLpro, 25 μM fluorogenic substrate, 37° C.; read-out: Inhibitory Activity (IC50)

SMILES | IC50 [µM]
CNC(=O)c1cc(Cl)cc([N+](=O)[O-])c1N[C@H]1CN(C(=O)c2cncc3ncccc23)CCC1(F)F [Compound 176, (S)-5-chloro-2-((4,4-difluoro-1-(1,7-naphthyridine-5-carbonyl)piperidin-3-yl)amino)-N-methyl-3-nitrobenzamide] | < 0.1
O=C(O)c1cc(Br)cc([N+](=O)[O-])c1N[C@@H]1CCCC[C@@H]1NC(=O)c1cncc2ccccc12 [Compound 52, 5-bromo-2-(((1R, 2S)-2-(isoquinoline-4-carboxamido)cyclohexyl)amino)-3-nitrobenzoic acid] | 1 to 10
CNC(=O)c1cc(Br)cc([N+](=O)[O-])c1N[C@H]1CN(C(=O)C2CC(=O)NC(=O)C2)CCC1(F)F [Compound 100, (S)-5-bromo-2-((1-(2,6-dioxopiperidine-4-carbonyl)-4,4-difluoropiperidin-3-yl)amino)-N-methyl-3-nitrobenzamide] | 0.1 to 1
CNC(=O)c1cc(Cl)cc([N+](=O)[O-])c1N[C@H]1CN(C(=O)c2cncc3cnccc23)CCC1(F)F [Compound 175, (S)-5-chloro-2-((4,4-difluoro-1-(2,7-naphthyridine-4-carbonyl)piperidin-3-yl)amino)-N-methyl-3-nitrobenzamide] | < 0.1
CNC(=O)c1cc(Br)cc([N+](=O)[O-])c1N[C@@H]1CCCCN(C(=O)c2cnc3ccccc3c2)C1 [Compound 20, (R)-5-bromo-N-methyl-3-nitro-2-((1-(quinoline-3-carbonyl)azepan-3-yl)amino)benzamide] | 0.1 to 1
CNC(=O)c1cc(Br)cc([N+](=O)[O-])c1N[C@@H]1CCCC[C@@H]1NC(=O)c1cncnc1 [Compound 2, N-((1S, 2R)-2-((4-bromo-2-(methylcarbamoyl)-6-nitrophenyl)amino)cyclohexyl) pyrimidine-5-carboxamide] | ≥ 10
O=C(N[C@H]1CCOC1)c1cc(Br)cc(C(F)(F)F)c1N[C@H]1CN(C(=O)c2cncc3ccccc23)CCC1(F)F [Compound 164, 5-bromo-2-(((S)-4,4-difluoro-1-(isoquinoline-4-carbonyl)piperidin-3-yl)amino)-N-((S)-tetrahydrofuran-3-yl)-3-(trifluoromethyl)benzamide] | < 0.1
CNC(=O)c1cc(Br)cc([N+](=O)[O-])c1NC1(C2CN(C(=O)c3cncc4ccccc34)C2)CC1 [Compound 63, 5-bromo-2-((1-(1-(isoquinoline-4-carbonyl)azetidin-3-yl)cyclopropyl)amino)-N-methyl-3-nitrobenzamide] | 1 to 10
O=C(N[C@@H]1CCOC1)c1cc(Br)cc([N+](=O)[O-])c1N[C@H]1CN(C(=O)c2cncc3ccccc23)CC1(F)F [Compound 163, 5-bromo-2-(((S)-4,4-difluoro-1-(isoquinoline-4-carbonyl)pyrrolidin-3-yl)amino)-3-nitro-N-((R)-tetrahydrofuran-3-yl)benzamide] | < 0.1
CNC(=O)c1cc(Br)cc([N+](=O)[O-])c1N[C@@H]1CN(C(C)=O)CC[C@@H]1NC(=O)c1cncc2ccccc12 [Compound 90, N-((3R, 4S)-1-acetyl-3-((4-bromo-2-(methylcarbamoyl)-6-nitrophenyl)amino)piperidin-4-yl)isoquinoline-4-carboxamide] | 1 to 10
CNC(=O)c1cc(Br)cc([N+](=O)[O-])c1N[C@H]1CN(C(=O)c2cnnn2C)CCC1(F)F [Compound 113, (S)-5-bromo-2-((4,4-difluoro-1-(1-methyl-1H-1,2,3-triazole-5-carbonyl)piperidin-3-yl)amino)-N-methyl-3-nitrobenzamide] | ≥ 10
CNC(=O)c1cc(Br)cc([N+](=O)[O-])c1N[C@@H]1CCC(C)(C)N(C(=O)c2cncc3ccccc23)C1 [Compound 138, (R)-5-bromo-2-((1-(isoquinoline-4-carbonyl)-6,6-dimethylpiperidin-3-yl)amino)-N-methyl-3-nitrobenzamide] | 0.1 to 1
CNC(=O)c1cc(Br)cc([N+](=O)[O-])c1N[C@H]1CN(C(=O)c2cncc3cccnc23)CC[C@@H]1F [Compound 108, 5-bromo-2-(((3S, 4S)-4-fluoro-1-(1,6-naphthyridine-8-carbonyl)piperidin-3-yl)amino)-N-methyl-3-nitrobenzamide] | < 0.1
CNC(=O)c1cc(Br)cc([N+](=O)[O-])c1Nc1ccccc1NC(=O)c1cncc2ccccc12 [Compound 131, N-(2-((4-bromo-2-(methylcarbamoyl)-6-nitrophenyl)amino)phenyl) isoquinoline-4-carboxamide] | ≥ 10
O=C(O)c1cc(Br)cc([N+](=O)[O-])c1N[C@H]1CN(C(=O)c2cncc3ccccc23)CCC1(F)F [Compound 153, (S)-5-bromo-2-((4,4-difluoro-1-(isoquinoline-4-carbonyl)piperidin-3-yl)amino)-3-nitrobenzoic acid] | 0.1 to 1
CNC(=O)c1cc(Cl)cc([N+](=O)[O-])c1N[C@H]1CN(C(=O)c2cncc3cc(O)ccc23)CCC1(F)F [Compound 168, (S)-5-chloro-2-((4,4-difluoro-1-(7-hydroxyisoquinoline-4-carbonyl)piperidin-3-yl)amino)-N-methyl-3-nitrobenzamide] | < 0.1
CC1(NC(=O)c2cc(Cl)cc([N+](=O)[O-])c2N[C@H]2CN(C(=O)c3cncc4ccccc34)CCC2(F)F)CC1 [Compound 152, (S)-5-chloro-2-((4,4-difluoro-1-(isoquinoline-4-carbonyl)piperidin-3-yl)amino)-N-(1-methylcyclopropyl)-3-nitrobenzamide] | < 0.1
CNC(=O)c1cc(Br)cc([N+](=O)[O-])c1NC(C(C)C)C1CN(C(=O)c2cncc3ccccc23)C1 (stereo in doubt) [Compound 15, (R)-5-bromo-2-((1-(1-(isoquinoline-4-carbonyl)azetidin-3-yl)-2-methylpropyl)amino)-N-methyl-3-nitrobenzamide] | ≥ 10
O=C(N[C@@H]1CCOC1)c1cc(Br)cc(C(F)(F)F)c1N[C@H]1CN(C(=O)c2cncc3ccccc23)CCC1(F)F [Compound 182, 5-bromo-2-(((S)-4,4-difluoro-1-(isoquinoline-4-carbonyl)piperidin-3-yl)amino)-N-((R)-tetrahydrofuran-3-yl)-3-(trifluoromethyl)benzamide] | < 0.1
O=C(N[C@@H]1CCNC1)c1cc(Br)cc([N+](=O)[O-])c1N[C@H]1CN(C(=O)c2cncc3ccccc23)CC1(F)F [Compound 150] | < 0.1
CNC(=O)c1cc(Br)cc([N+](=O)[O-])c1NC(C(C)C)C1CN(C(=O)c2cncnc2)C1 (centres unmarked) [Compound 71, 5-bromo-N-methyl-2-((2-methyl-1-(1-(pyrimidine-5-carbonyl)azetidin-3-yl)propyl)amino)-3-nitrobenzamide] | 1 to 10
O=C(c1cc(Br)cc([N+](=O)[O-])c1N[C@H]1CN(C(=O)c2cncc3ccccc23)CC1(F)F)N1CC(F)(F)C1 [Compound 162, (S)-(5-bromo-2-((4,4-difluoro-1-(isoquinoline-4-carbonyl)pyrrolidin-3-yl)amino)-3-nitrophenyl)(3,3-difluoroazetidin-1-yl)methanone] | < 0.1
O=C(NC1CC(F)(F)C1)c1cc(Br)cc([N+](=O)[O-])c1N1CCC2(CCN(C(=O)c3cncc(C(F)(F)F)c3)C2)C1 (centres unmarked) [Compound 22, 5-bromo-N-(3,3-difluorocyclobutyl)-3-nitro-2-(7-(5-(trifluoromethyl)nicotinoyl)-2,7-diazaspiro[4.4]nonan-2-yl)benzamide] | 1 to 10
